The source of these data is patent publication US9447075B2, “Pyridazine derivatives as EAAT2 activators” (The Brigham and Women's Hospital, Inc., priority 2011, dated 2016).

As usually defined, the half-life is how long it takes for the measured level to halve. What is called Cmax is the maximum level reached in the sampled fluid or tissue. Broadly, the inhibition is the percentage by which the read-out fell short of the control.

Read-outs that look alike come from different tables or passages of the source.

One data set concerns EAAT2 mRNA. Nature of the data set: EAAT2 mRNA in brain by quantitative real-time RT-PCR after i.p. administration. The class given is in vivo, mouse. To be noted: FIG. 8D. The method, then:
(§1) We next examined EAAT2 protein levels and glutamate uptake activities in brain following i.p. administration of Compound 212320 in C57BL/6 mice. Plasma membrane vesicles were prepared from mouse forebrains to measure functional EAAT2 protein. After a single i.p. dose of Compound 212320 at 40 mg/kg, EAAT2 protein levels and associated glutamate uptake increased to ˜1.5-2-fold at 2 hr and to ˜2-3-fold from 8 hr to 24 hr post-injection (FIG. 8B). Even at 72 hr, a ˜1.5 fold increase in EAAT2 protein levels could still be detected (data not shown). In addition, Compound 212320-induced EAAT2 protein levels and glutamate uptake were both dose-dependent (FIG. 8C). This induction was not due to transcriptional activation because EAAT2 mRNA was not increased as measured by quantitative real-time RT-PCR (FIG. 8D). We compared ceftriaxone (200 mg/kg), which increases EAAT2 expression through transcriptional activation, with Compound 212320 (40 mg/kg) that activates EAAT2 translation.
(Real-time PCR tracks product formation cycle by cycle.)

In a further data set the test system is EAAT2. The data set is described as follows: EAAT2 protein levels and glutamate uptake in forebrain plasma membrane vesicles after i.p. administration. The note with it: for EAAT2 protein levels increase / Glutamate uptake increase: single i.p. 40 mg/kg. Format: in vivo, mouse. The method, then: as §1
Data set [1] in a line: In vivo pharmacokinetic evaluation in male C57Bl/6 mice (LCMS/MS). The arrangement: species or system mouse. To be noted: ip, single i.p. 3 mg/kg; for half-life: estimated. As for the experimental part:
Compound 212320 is compliant with Lipinski rules and lacks functionality that would predict overt toxicity or reactivity. This compound has a low molecular weight (293.38), cLogP value (3.28) and polar surface area (PSA) value (37.08 Å2) in the range typical of compounds that can penetrate the blood brain barrier. We conducted in vivo pharmacokinetic evaluation of LDN 212320 in male C57Bl/6 mice. After a single intraperitoneal (i.p.) administration of Compound 212320 (3 mg/kg), the plasma and brain concentrations were determined over an 8 hr period by LCMS/MS (FIG. 8A). […] The plasma and brain half-lives were estimated to be 2.63 and 2.64 hr, respectively. The average brain-to-plasma ratio was approximately 2 at all time points tested.

Another data set concerns the target T1, CYP1A2 (Homo sapiens, UniProt P05177).
T1 sequence (P05177 1-516): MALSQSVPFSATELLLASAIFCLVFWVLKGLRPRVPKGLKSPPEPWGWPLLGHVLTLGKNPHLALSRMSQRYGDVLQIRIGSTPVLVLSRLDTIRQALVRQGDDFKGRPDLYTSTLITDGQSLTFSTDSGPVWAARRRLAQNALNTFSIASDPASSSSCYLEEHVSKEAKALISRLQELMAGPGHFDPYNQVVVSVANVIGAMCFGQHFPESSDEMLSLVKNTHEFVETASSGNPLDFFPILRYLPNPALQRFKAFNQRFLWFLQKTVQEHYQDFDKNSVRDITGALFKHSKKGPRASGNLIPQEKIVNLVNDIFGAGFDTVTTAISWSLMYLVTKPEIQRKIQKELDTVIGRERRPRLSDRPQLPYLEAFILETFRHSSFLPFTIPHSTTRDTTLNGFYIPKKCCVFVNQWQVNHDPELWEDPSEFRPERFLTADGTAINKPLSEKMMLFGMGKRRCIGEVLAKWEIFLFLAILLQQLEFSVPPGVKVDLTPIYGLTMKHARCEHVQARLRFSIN
Nature of the data set: In vitro side effect profiling: CYP1A2. The class given is in vitro ADME. The note with it: duplicate, read-out: inhibition on cytochrome p450 CYP1A2. As for the experimental part: To assess Compound 212320's biological activity and selectivity, we performed an in vitro side effect profiling study. Seventy-one targets were tested at 10 μM in duplicate. These targets include neurotransmitter related receptors (30), steroids (2), ion channels (6), second messenger (1), prostaglandins (3), growth factors/hormones (4), brain/gut peptides (13), enzymes (5) and cytochrome p450 (7). […] Additionally, we performed a protein kinase profiling study. Compound 212320 was tested at 1 and 10 μM against 288 kinases. […] These studies indicate that Compound 212320 has high specificity and low side-effects/toxicity potential.

Where [2] appears, read: from 8 hr to 24 hr post-injection.

Turning to `Cc1ccccc1CSc1ccc(-c2ccccn2)nn1` [Compound 7-4], the “EAAT2 mRNA” value in the data set with EAAT2 mRNA was “not increased”. Moreover, in the data set on EAAT2 (40 mg/kg vs ceftriaxone 200 mg/kg, a single dose after 24 hr), the “EAAT2 induction compared with ceftriaxone” value was “greater EAAT2 induction than ceftriaxone”. Further, in the data set on EAAT2 (FIG. 8C), the “Induced EAAT2 protein levels, dose dependence” value was “dose-dependent”. In the data set with EAAT2 (FIG. 8C), the “Induced glutamate uptake, dose dependence” value is recorded as “dose-dependent”. Further, the “EAAT2 protein levels increase” value in the data set on EAAT2 (2 hr post-injection) is recorded as 1.5-2 fold; in the data set on EAAT2 (72 hr, data not shown) it was about 1.5 fold; with EAAT2 (setting [2]), 2-3 fold. Further, the Glutamate uptake increase is recorded as 1.5-2 fold with EAAT2 (2 hr post-injection) and 2-3 fold in the data set on EAAT2 (setting [2]). Besides, the Kp in data set [1] (male, C57Bl/6, mouse, brain, all time points tested, read-out: average brain-to-plasma ratio) was about 2. Further, the half-life is 158 min in data set [1] (male, C57Bl/6, mouse, brain, read-out: Brain half-life (converted)) and 158 min in data set [1] (male, C57Bl/6, mouse, plasma, read-out: Plasma half-life (converted)). Besides, the Cmax in data set [1] (mouse, in vivo, male C57Bl/6 mice) was determined as 42.1 ± 3.6 ng/mL. On CYP1A2, the inhibition at 10 µM worked out at 69%.
